The record followed here is the Kinase Knowledgebase extract (Sharma et al. 2016).

Structures are written as SMILES. pIC50: −log10 of the molar value. Values joined by “and” are separate entries in the source; they are usually repeats but may differ in a detail not shown here. Equal values may be shown once. Where only a bound is given, the exact number is not on record here.

For experiment [1], the target named is EGFR (UniProt P00533).
In experiment [2] the target is EGFR (UniProt P00533). The source holds these as a separate data set.
The target in experiment [3] is EGFR (UniProt P00533). The source holds these as a separate data set.
For a further experiment, the target named is CDK2 (UniProt P24941). Briefly: Enzyme Assay.

Chain of EGFR (P00533 whole entry, looked up): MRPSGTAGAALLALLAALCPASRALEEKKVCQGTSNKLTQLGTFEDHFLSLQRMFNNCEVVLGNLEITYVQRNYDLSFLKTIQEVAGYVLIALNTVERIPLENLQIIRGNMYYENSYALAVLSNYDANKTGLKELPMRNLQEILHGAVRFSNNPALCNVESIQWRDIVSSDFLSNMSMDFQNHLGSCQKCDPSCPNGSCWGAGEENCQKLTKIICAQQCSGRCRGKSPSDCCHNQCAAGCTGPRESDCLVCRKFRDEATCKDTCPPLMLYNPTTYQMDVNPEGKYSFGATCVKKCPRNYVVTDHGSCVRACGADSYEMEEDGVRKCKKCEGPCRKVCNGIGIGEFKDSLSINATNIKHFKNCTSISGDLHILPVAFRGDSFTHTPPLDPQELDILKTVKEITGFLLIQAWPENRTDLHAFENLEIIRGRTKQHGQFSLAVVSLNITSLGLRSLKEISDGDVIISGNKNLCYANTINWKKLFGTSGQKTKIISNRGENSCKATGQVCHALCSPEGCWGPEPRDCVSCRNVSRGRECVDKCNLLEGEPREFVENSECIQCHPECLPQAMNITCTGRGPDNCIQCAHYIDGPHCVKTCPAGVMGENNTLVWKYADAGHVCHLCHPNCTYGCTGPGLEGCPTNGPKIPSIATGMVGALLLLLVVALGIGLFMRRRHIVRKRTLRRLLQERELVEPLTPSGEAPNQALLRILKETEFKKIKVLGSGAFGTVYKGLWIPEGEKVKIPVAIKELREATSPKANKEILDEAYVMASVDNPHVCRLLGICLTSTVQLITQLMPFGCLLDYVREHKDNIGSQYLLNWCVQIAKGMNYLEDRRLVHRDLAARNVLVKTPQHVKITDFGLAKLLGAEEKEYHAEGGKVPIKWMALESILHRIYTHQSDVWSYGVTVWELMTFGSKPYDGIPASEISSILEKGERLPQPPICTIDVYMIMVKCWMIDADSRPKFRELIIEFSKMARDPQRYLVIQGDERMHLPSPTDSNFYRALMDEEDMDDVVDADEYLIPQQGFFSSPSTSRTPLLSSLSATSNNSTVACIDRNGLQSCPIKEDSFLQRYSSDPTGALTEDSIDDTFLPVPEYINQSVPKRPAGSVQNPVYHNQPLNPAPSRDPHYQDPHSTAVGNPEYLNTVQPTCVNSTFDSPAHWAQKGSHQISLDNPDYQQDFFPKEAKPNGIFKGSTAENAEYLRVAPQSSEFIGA

As for `CCc1cc(CC)c(/C=C2\C(=O)Nc3cc(-c4ccc(OC)cc4)ccc32)[nH]1`, the pIC50 was under 4.00 at EGFR [1], under 4.30 at EGFR [2] and under 4.00 against EGFR [3].

`CC(C)(C)c1cc(C(=O)Nc2ccncc2)n(Cc2ccccc2)n1`: the negative-log IC50 (pIC50) against EGFR [2] was 4.55.

`CC(C)(C)c1cc(C(=O)Nc2c(F)c(F)nc(F)c2F)n(Cc2ccccc2)n1` had a pIC50 on EGFR [2] of 4.59. The pIC50 values of the last two compounds are within 0.2 log units of each other.

Turning to `CCOc1cccc(-c2ccc3c(c2)NC(=O)/C3=C\c2cc(C(C)C)c(OC)c(C(C)C)c2)c1`, the pIC50 was under 4.00 against EGFR [1], 4.71 on EGFR [2] and under 4.00 at EGFR [3].

For `CC(=O)Nc1ccc2c(c1)C(=O)c1cc(NC(=O)c3cc(C(C)(C)C)nn3Cc3ccccc3)ccc1-2`, the pIC50 at EGFR [2] is 5.36.

As for `CC(C)(C)c1cc(C(=O)Nc2cc3ccccc3cn2)n(Cc2ccccc2)n1`, at EGFR [2], the negative-log IC50 (pIC50) was under 4.00.

Turning to `COc1ccccc1-c1ccc2c(c1)NC(=O)/C2=C\c1[nH]c2c(c1C)CCCC2`, the pIC50 against EGFR [1] was under 4.00; at EGFR [2], under 4.30; at EGFR [3] it was under 4.00.

Compound `COc1ccc(-c2ccccc2)cc1NC(=O)c1cc(C(C)(C)C)nn1Cc1ccccc1` gave a pIC50 at EGFR [2] of under 4.30.

`CC(C)(C)c1cc(C(=O)Nc2cccc(-c3ccccc3)c2)n(Cc2ccccc2)n1`: the pIC50 against EGFR [2] is under 4.30.

As to `O=C1Nc2cc(-c3ccccc3)ccc2/C1=C/c1cc2c([nH]1)CCCC2`, the pIC50 was under 4.00 against EGFR [1], under 4.30 at EGFR [2] and under 4.00 on EGFR [3].

In the case of `COc1ccccc1-c1ccc2c(c1)NC(=O)/C2=C\c1[nH]c(C)cc1C`, the pIC50 on EGFR [1] and at EGFR [3] was under 4.00 each time.

The compound `O=C1Nc2ccccc2/C1=C\c1c[nH]cn1` showed a pIC50 against CDK2 of over 6.11.

Take `CCc1cc(CC)c(/C=C2\C(=O)Nc3cc(-c4ccccc4OC)ccc32)[nH]1`: the pIC50 on EGFR [1] and against EGFR [3] was under 4.00 each time.

In the case of `COc1ccc(NC(=O)c2cc(C(C)(C)C)nn2Cc2ccccc2)c(OC)n1`, the negative-log IC50 (pIC50) against EGFR [2] was under 4.00.

Take `O=C1Nc2ccc(F)cc2/C1=C\c1c[nH]cn1`: the pIC50 at CDK2 was 5.11.

Consider `COc1cccc(-c2ccc3c(c2)NC(=O)/C3=C\c2ccc(N3CCN(C=O)CC3)cc2)c1`, for which the pIC50 was under 4.00 against EGFR [1], under 4.30 on EGFR [2] and under 4.00 at EGFR [3].

As to `CC(C)(C)c1cc(C(=O)Nc2ccc(C(F)(F)F)cn2)n(Cc2ccccc2)n1`, the negative-log IC50 (pIC50) at EGFR [2] was 4.33.

For the compound `COc1ccccc1-c1ccc2c(c1)NC(=O)/C2=C\c1cnc[nH]1`, the pIC50 on EGFR [1] and against EGFR [3] was under 4.00 each time.

Take `COc1ccc(-c2ccc3c(c2)NC(=O)/C3=C\c2cnc[nH]2)cc1`: the pIC50 on EGFR [1] was under 4.00; against EGFR [2], under 4.30; at EGFR [3] it was under 4.00.

On to `CCOc1cccc(-c2ccc3c(c2)NC(=O)/C3=C\c2cnc[nH]2)c1`, for which the pIC50 at EGFR [1] is under 4.00; against EGFR [2], under 4.30; against EGFR [3], under 4.00.

Turning to `COc1ccc(-c2ccc3c(c2)NC(=O)/C3=C\c2cc3c([nH]2)CCCC3)cc1`, the pIC50 is under 4.00 on EGFR [1], under 4.30 at EGFR [2] and under 4.00 against EGFR [3].

`Cc1cccnc1NC(=O)c1cc(C(C)(C)C)nn1Cc1ccccc1` had a pIC50 at EGFR [2] of 4.27.

In the case of `CCOc1cccc(-c2ccc3c(c2)NC(=O)/C3=C\c2[nH]c(CC)cc2CC)c1`, the pIC50 is under 4.00 at EGFR [1], under 4.30 against EGFR [2] and under 4.00 at EGFR [3].

For the compound `CC(C)(C)c1cc(C(=O)Nc2ccc(O)c(-c3cccc(-c4ccccc4)c3)c2)n(Cc2ccccc2)n1`, the pIC50 against EGFR [2] was under 4.30.

Consider `Cc1ccc(/C=C2\C(=O)Nc3cc(-c4ccccc4)ccc32)s1`, for which the pIC50 was under 4.00 on EGFR [1], under 4.30 at EGFR [2] and under 4.00 against EGFR [3].

Take `Cc1cc(C)c(/C=C2\C(=O)Nc3cc(-c4ccccc4)ccc32)[nH]1`: the pIC50 was under 4.00 against EGFR [1], under 4.30 at EGFR [2] and under 4.00 on EGFR [3].

Compound `Cc1cc(C)c(NC(=O)c2cc(C(C)(C)C)nn2Cc2ccccc2)cn1` showed a pIC50 against EGFR [2] of 4.16.

In the case of `O=C1Nc2cc(-c3ccccc3)ccc2/C1=C/c1cnc[nH]1`, the pIC50 was under 4.00 against EGFR [1], under 4.30 against EGFR [2] and under 4.00 against EGFR [3].

In the case of `COc1ccccc1-c1ccc2c(c1)NC(=O)/C2=C\c1cc2c([nH]1)CCCC2`, the pIC50 is under 4.00 against EGFR [1], 4.47 at EGFR [2] and under 4.00 against EGFR [3].

`CCOc1cccc(-c2ccc3c(c2)NC(=O)/C3=C\c2[nH]c(C)cc2C)c1`: the pIC50 against EGFR [1] was under 4.00; on EGFR [2], under 4.30; at EGFR [3], under 4.00.

As to `COc1ccc(-c2ccc3c(c2)NC(=O)/C3=C\c2[nH]c(C)cc2C)cc1`, the figures for the pIC50 on EGFR [1], at EGFR [2] and on EGFR [3] were under 4.00, under 4.30 and under 4.00, respectively.

The compound `CCn1c2ccccc2c2cc(NC(=O)c3cc(C(C)(C)C)nn3Cc3ccccc3)ccc21` gave a pIC50 on EGFR [2] of under 4.30.

Take `CC(C)(C)c1cc(C(=O)Nc2cccc(C(F)(F)F)c2)n(Cc2ccccc2)n1`: the pIC50 against EGFR [2] is 4.27.

As to `COc1ccc(-c2ccc3c(c2)NC(=O)/C3=C\c2[nH]c3c(c2CCC(=O)O)CCCC3)cc1`, the pIC50 against EGFR [1] and at EGFR [3] was under 4.00 throughout.

Take `CC(C)(C)c1cc(C(=O)Nc2ccccc2C(F)(F)F)n(Cc2ccccc2)n1`: on EGFR [2], the pIC50 is 4.33.

For `CCc1cc(CC)c(/C=C2\C(=O)Nc3cc(-c4cccc(OC)c4)ccc32)[nH]1`, the negative-log IC50 (pIC50) is under 4.00 at EGFR [1]; < 4.30 and 4.51 at EGFR [2]; under 4.00 against EGFR [3].

Regarding `CC(C)(C)c1cc(C(=O)Nc2ccc3c(c2)OCO3)n(Cc2ccccc2)n1`, at EGFR [2], the pIC50 was 4.30.

With `CCOc1cccc(-c2ccc3c(c2)NC(=O)/C3=C\c2ccc(C)s2)c1`, the values for the negative logarithm of the IC50 (pIC50) against EGFR [1], against EGFR [2] and at EGFR [3] were under 4.00, under 4.30 and under 4.00, respectively.

Consider `COc1cccc(-c2ccc3c(c2)NC(=O)/C3=C\c2cnc[nH]2)c1`, for which the pIC50 against EGFR [1] was under 4.00; against EGFR [2], < 4.30 and 4.56; against EGFR [3], under 4.00.

For `COc1ccc(-c2ccc3c(c2)NC(=O)/C3=C\c2ccc(C)s2)cc1`, the pIC50 against EGFR [1] was under 4.00; against EGFR [2], under 4.30; against EGFR [3], under 4.00.

`COc1ccccc1-c1ccc2c(c1)NC(=O)/C2=C\c1[nH]c2c(c1CCC(=O)O)CCCC2`: the pIC50 against EGFR [1] and against EGFR [3] was under 4.00 throughout.

Compound `CC(C)(C)c1cc(C(=O)Nc2ccc3oc(=O)c4ccccc4c3c2)n(Cc2ccccc2)n1` showed a negative logarithm of the IC50 (pIC50) against EGFR [2] of 4.37.

`CCc1cc(CC)c(/C=C2\C(=O)Nc3cc(-c4ccccc4)ccc32)[nH]1`: the pIC50 is under 4.00 against EGFR [1], under 4.30 on EGFR [2] and under 4.00 at EGFR [3].

As to `COc1cc2c(cc1OC)/C(=C\c1c[nH]cn1)C(=O)N2`, at CDK2, the pIC50 was 5.62.

On to `O=C1Nc2ccc(Cl)cc2/C1=C\c1c[nH]cn1`, for which, on CDK2, the pIC50 is over 6.11.

With `Nc1ccc2c(c1)/C(=C\c1c[nH]cn1)C(=O)N2`, the negative-log IC50 (pIC50) at CDK2 was over 6.11.

Take `O=C(O)CCc1c(/C=C2\C(=O)Nc3cc(-c4ccccc4)ccc32)[nH]c2c1CCCC2`: the pIC50 against EGFR [1] and against EGFR [3] was under 4.00 in each case.

Take `COc1ccc(NC(=O)c2cc(C(C)(C)C)nn2Cc2ccccc2)cc1-c1ccccc1`: the pIC50 at EGFR [2] was under 4.30.

The compound `O=C1Nc2c(Br)cc(Cl)cc2/C1=C\c1c[nH]cn1` had a pIC50 at CDK2 of 5.03.

At CDK2, `O=C1Nc2ccc([N+](=O)[O-])cc2/C1=C\c1c[nH]cn1` showed a pIC50 of over 6.11.

Turning to `Cc1ccc(Cn2nc(C)cc2C(=O)Nc2ccc(C(F)(F)F)cc2)cc1`, the pIC50 against EGFR [2] is 5.15 and 5.01.

Regarding `COc1c(C(C)C)cc(/C=C2\C(=O)Nc3cc(-c4ccccc4)ccc32)cc1C(C)C`, the pIC50 at EGFR [1] and on EGFR [3] was under 4.00 in each case.

In turn, `Cc1cc(C)c2c(c1)NC(=O)/C2=C/c1c[nH]cn1` had a pIC50 at CDK2 of over 6.11.

In turn, `Cc1cnc2ccccc2c1NC(=O)c1cc(C(C)(C)C)nn1Cc1ccccc1` gave a pIC50 against EGFR [2] of 4.67.

Compound `CC(C)(C)c1cc(C(=O)Nc2ccccn2)n(Cc2ccccc2)n1` showed a pIC50 against EGFR [2] of under 4.00.

Regarding `COc1cccc(-c2ccc3c(c2)NC(=O)/C3=C\c2cc(C(C)C)c(OC)c(C(C)C)c2)c1`, the pIC50 was under 4.00 at EGFR [1], 4.86 at EGFR [2] and under 4.00 against EGFR [3].

Consider `COc1cccc(-c2ccc3c(c2)NC(=O)/C3=C\c2[nH]c(C)cc2C)c1`, for which the negative logarithm of the IC50 (pIC50) on EGFR [1] was under 4.00; at EGFR [2] it was < 4.30 and 4.56; at EGFR [3], under 4.00.

In turn, `COc1cccc(-c2cc(NC(=O)c3cc(C(C)(C)C)nn3Cc3ccccc3)ccc2OC)c1` had a pIC50 at EGFR [2] of under 4.30.

On EGFR [2], `CC(C)(C)c1cc(C(=O)Nc2cccnc2)n(Cc2ccccc2)n1` had a pIC50 of under 4.00.

Turning to `CC(C)(C)c1cc(C(=O)Nc2cccc3c2C(=O)c2ccccc2-3)n(Cc2ccccc2)n1`, the pIC50 against EGFR [2] is under 4.30.

For the compound `Cc1ccnc(NC(=O)c2cc(C(C)(C)C)nn2Cc2ccccc2)c1`, the pIC50 at EGFR [2] is 4.30.

At EGFR [2], `CC(C)(C)c1cc(C(=O)c2nccc3ccccc23)n(Cc2ccccc2)n1` had a pIC50 of 4.65.

As for `CCOc1cccc(-c2ccc3c(c2)NC(=O)/C3=C\c2cc3c([nH]2)CCCC3)c1`, the pIC50 against EGFR [1] was under 4.00; against EGFR [2], under 4.30; on EGFR [3] it was under 4.00.

In turn, `CC(C)(C)c1cc(C(=O)Nc2ccc(C(F)(F)F)cc2)n(Cc2ccccc2)n1` showed a negative-log IC50 (pIC50) on EGFR [2] of 4.81.

As to `COc1cccc(-c2ccc3c(c2)NC(=O)/C3=C\c2[nH]c3c(c2CCC(=O)O)CCCC3)c1`, the pIC50 at EGFR [1] is under 4.00; against EGFR [2], 4.43; on EGFR [3], 4.94.

On to `COc1ccc(-c2ccc3c(c2)NC(=O)/C3=C\c2[nH]c3c(c2C)CCCC3)cc1`, for which the pIC50 against EGFR [1] was under 4.00; against EGFR [2], under 4.30; against EGFR [3], under 4.00.

Regarding `COc1cccc(-c2ccc3c(c2)NC(=O)/C3=C\c2[nH]c3c(c2C)CCCC3)c1`, the pIC50 at EGFR [1] was under 4.00; against EGFR [2], under 4.30; at EGFR [3] it was under 4.00.

As to `COc1cccc(-c2ccc3c(c2)NC(=O)/C3=C\c2cc3c([nH]2)CCCC3)c1`, the pIC50 against EGFR [1] was under 4.00; on EGFR [2], 4.50 and < 4.30.

Turning to `Cc1ccc(Cn2nc(C)cc2C(=O)Nc2cccc(C(F)(F)F)c2)cc1`, the pIC50 against EGFR [2] was 5.20 and 5.01.

Consider `CC(C)(C)c1cc(C(=O)Nc2cnc3ccccc3c2)n(Cc2ccccc2)n1`, for which, at EGFR [2], the pIC50 is 4.99.

As a reminder, the pIC50 is the negative decadic logarithm of the IC50, by convention in mol/L.
